Source: paper PMC4176347, “Zinc finger oxidation of Fpg/Nei DNA glycosylases by 2-thioxanthine: biochemical and X-ray structural characterization” (Nucleic Acids Research, 2014)

Tests used:
[1] = molecular target: T1, hNEIL2 (Homo sapiens, UniProt Q969S2); test: PAR assay, 2TX-induced Zn2+ release, A500; type: binding; settings: free enzyme without DNA; 5 μM enzyme, 10 mM 2TX, 100 μM PAR, 25 mM Hepes/KOH pH 7.5, 70 mM KCl, 8% DMSO, room temperature; covalent
T1 construct: gene NEIL2; 6His-hNEIL2 fusion, vector pPR363, expressed in E. coli BL21CodonsPlus; CHC2-type zinc finger
T1 sequence (Q969S2 1-332): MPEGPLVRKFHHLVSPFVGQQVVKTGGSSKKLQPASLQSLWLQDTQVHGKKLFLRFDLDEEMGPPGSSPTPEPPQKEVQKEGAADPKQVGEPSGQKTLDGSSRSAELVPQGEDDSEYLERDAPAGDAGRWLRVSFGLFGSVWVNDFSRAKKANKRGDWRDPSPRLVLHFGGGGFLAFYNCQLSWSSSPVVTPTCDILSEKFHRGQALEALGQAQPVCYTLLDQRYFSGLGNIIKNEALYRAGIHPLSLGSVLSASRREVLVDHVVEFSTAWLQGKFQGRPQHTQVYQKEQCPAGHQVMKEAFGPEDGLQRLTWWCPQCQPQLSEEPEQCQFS
Excerpt: PAR assay, 2TX-induced Zn2+ release, A500 on hNEIL2

[2] = molecular target: T1, hNEIL2; test: Hyd-DNA glycosylase assay, […]-labelled 24-mer, Urea-PAGE; type: biochemical; settings: Hyd single-stranded DNA, 30 min, 37°C, 8% DMSO
[3] = molecular target: T2, LlFpg (Lactococcus cremoris, UniProt P42371); test: PAR assay, 2TX-induced Zn2+ release, A500; type: binding; settings: free enzyme without DNA; 5 μM enzyme, 10 mM 2TX, 100 μM PAR, 25 mM Hepes/KOH pH 7.5, 70 mM KCl, 8% DMSO, room temperature; covalent
T2 construct: gene mutM; full-length recombinant from pFlag-CTC-WT-LlFpg, E. coli BH540 (fpg mutY) host, purified to homogeneity; zinc finger C245/C248/C265/C268
T2 sequence (P42371 2-273): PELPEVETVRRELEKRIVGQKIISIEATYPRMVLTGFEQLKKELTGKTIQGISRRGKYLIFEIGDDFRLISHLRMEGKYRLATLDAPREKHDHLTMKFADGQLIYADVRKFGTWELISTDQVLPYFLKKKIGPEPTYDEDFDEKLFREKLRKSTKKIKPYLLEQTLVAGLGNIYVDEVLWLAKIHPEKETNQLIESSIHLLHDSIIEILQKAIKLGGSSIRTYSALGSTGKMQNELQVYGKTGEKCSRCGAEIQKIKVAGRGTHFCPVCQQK
Excerpt: PAR assay, 2TX-induced Zn2+ release, A500 on LlFpg

[4] = molecular target: T2, LlFpg; test: X-ray crystal structures of LlFpg/DNA treated with 2TX ([…] Å THF-DNA; […] Å Bz-cFapyG-DNA); type: binding; settings: covalent disulfide to C248 (THF-DNA) or C268 (Bz-cFapyG-DNA); stacks on W179; outside active site; zinc lost
[5] = molecular target: T3, EcNei (Escherichia coli, UniProt P50465); test: Hyd-DNA glycosylase assay, […]-labelled 24-mer, Urea-PAGE; type: biochemical; settings: Hyd:G double-stranded DNA, 30 min, 37°C, 8% DMSO
T3 construct: gene nei; full-length, C-terminal 6His-tag, pET22b derivative, expressed in E. coli BL21(DE3)
T3 sequence (P50465 2-263): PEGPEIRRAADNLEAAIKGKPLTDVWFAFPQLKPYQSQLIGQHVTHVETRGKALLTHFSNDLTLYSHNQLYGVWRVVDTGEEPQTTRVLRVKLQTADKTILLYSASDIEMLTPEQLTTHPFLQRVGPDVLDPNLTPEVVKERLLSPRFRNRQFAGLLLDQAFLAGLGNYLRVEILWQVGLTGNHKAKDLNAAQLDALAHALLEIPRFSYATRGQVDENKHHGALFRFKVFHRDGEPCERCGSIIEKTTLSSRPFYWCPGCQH

[6] = molecular target: T3, EcNei; test: PAR assay, 2TX-induced Zn2+ release, A500; type: binding; settings: free enzyme without DNA; 5 μM enzyme, 10 mM 2TX, 100 μM PAR, 25 mM Hepes/KOH pH 7.5, 70 mM KCl, 8% DMSO, room temperature; covalent
Excerpt: PAR assay, 2TX-induced Zn2+ release, A500 on EcNei

[7] = molecular target: T2, LlFpg; test: 8-oxoG-DNA glycosylase assay, […]-labelled 24-mer, gel; type: biochemical; settings: 5 nM enzyme, 25 nM 8-oxoG-DNA, 0-250 μM 2TX, 30 min, 37°C, 8% DMSO
[8] = molecular target: T4, LlFpg WT (Lactococcus lactis) (UniProt P42371); test: EMSA; settings: apparent Kd, N at position 7 of strand 1 = tetrahydrofuran (THF) abasic site analogue, opposite C, EMSA: 0.1 nM 32P-labelled 14-mer THF-DNA, 0-16 nM LlFpg (2 nM in 2TX assays), 20 min at 4 C / on ice, with or without 8% DMSO, buffer and pH as in cited …
T4 sequence: T2 sequence (P42371 2-273)

Compound | kobs (min^-1)^a / - DNA [1] [min⁻¹] | Hyd-DNA glycosylase assay, 32P-labelled 24-mer, Urea-PAGE [2] | kobs (min^-1)^a / - DNA [3] [min⁻¹] | X-ray crystal structures of LlFpg/DNA treated with 2TX (2.4 Å THF-DNA); 2.1 Å Bz- [4] | Hyd-DNA glycosylase assay, 32P-labelled 24-mer, Urea-PAGE [5] | kobs (min^-1)^a / - DNA [6] [min⁻¹] | 8-oxoG-DNA glycosylase assay, 32P-labelled 24-mer, gel [7] | Kd ([8]; 8% DMSO) [nM] | Kd ([8]; without DMSO) [nM]
O=c1[nH]c(=S)[nH]c2nc[nH]c12 [2TX, 2-thioxanthine] | 0.180 ± 0.002 | The Hyd-DNA glycosylase activity of EcNei and hNEIL2 were also strongly inhibited by 2TX | 0.073 ± 0.001 | a 2TX molecule covalently bound to C268 was easily modeled in the electron density map | The Hyd-DNA glycosylase activity of EcNei and hNEIL2 were also strongly inhibited by 2TX | 0.296 ± 0.001 | excision of 8-oxoG from 24-mer DNA duplex (Supplementary Figure S2) by LlFpg was inhibited | – | –
CTCTTTNTTTCTCG / GCGAGAAACAAAGA [14-mer THF-DNA] | – | – | – | – | – | – | – | 3 | 10
